Measurements published in ChEMBL document CHEMBL1139769, “PASS-predicted design, synthesis and biological evaluation of cyclic nitrones as nootropics” (Bioorg Med Chem Lett, 2007).

Experiments:
Mus musculus [1] = experiment: Nootropic effect in Albino mouse assessed as decrease in transfer latency at 75 mg/kg, po after 24 hrs by elevated plus maze test; assay type: functional; design: scale not given: the % may be the effect or the level left
[2] = Partition coefficient, log P of the compound; assay type: physicochemical; settings: octanol/water
Mus musculus [3] = experiment: Nootropic effect in Albino mouse assessed as decrease in transfer latency at 200 mg/kg, ip after 24 hrs by elevated plus maze test; assay type: functional; design: scale not given: the % may be the effect or the level left; settings: route intraperitoneal

Structure (SMILES): O=[N+]([O-])c1ccc(C2=[N+]([O-])C(c3ccccc3)N(C3CCCCC3)C2)cc1 (centres undefined)
- Activity (Mus musculus [1]): 51.6%
- logP [2]: 2.41

Structure (SMILES): CN(C)c1ccc(C2N(Cc3ccccc3)CC(c3ccc([N+](=O)[O-])cc3)=[N+]2[O-])cc1 (centres undefined)
- Activity (Mus musculus [1]): 10.8%
- logP [2]: 2.02

Structure (SMILES): COc1ccc(N2CC(c3ccc([N+](=O)[O-])cc3)=[N+]([O-])C2c2ccc(N(C)C)cc2)cc1 (centres undefined)
- Activity (Mus musculus [1]): 40.4%
- logP [2]: 2.32

Structure (SMILES): O=[N+]([O-])c1ccc(C2=[N+]([O-])C(c3ccccc3)N(c3ccccc3)C2)cc1 (centres undefined)
- Activity (Mus musculus [1]): 36.4%
- logP [2]: 2.45

Structure (SMILES): NC(=O)CN1CCCC1=O [PIRACETAM]
- Activity (Mus musculus [3]): 51.3%
